According to US20230075822A1, “USE OF CASTALAGIN OR ANALOGS THEREOF FOR ANTI-CANCER EFFICACY AND TO INCREASE THE RESPONSE TO IMMUNE CHECKPOINT INHIBITORS” (THE ROYAL INSTITUTION FOR THE ADVANCEMENT OF …, priority 2020, published 2023):

What was measured:
MCA-205 sarcoma = assay: MCA-205 tumor model in germ-free conditions; type: in vivo, C57BL/6 mice; details: castalagin 0.85 mg/kg per mouse
Method: FIG. 9A is a graph showing the effects of castalagin administration at the standard concentration (0.85 mg/kg per mouse) in germ-free conditions on tumor size in the murine MCA-205 tumor model.
Murine studies. All animal studies were approved by the Institutional Animal Care Committee (CIPA) and carried out in compliance with the Canadian Council on Animal Care guidelines. Murine experiments were conducted using seven-week-old female C57BL/6 mice, obtained from Charles River, Canada. Germ-free female C57BL/6 mice were purchased from the International Microbiome Centre Germ-Free Facility (University of Calgary, Canada) and maintained at the CR-CHUM Germ-Free Facility.
Subcutaneous model of MCA-205 sarcoma and E0771 breast cancer. Syngeneic C57BL/6 mice were implanted with 0.8×10^6 MCA-205 or 0.5×10^6 E0771 subcutaneously. When tumors reached 20 to 35 mm^2 in size, mice were treated four times (or two times for flow cytometry analysis, see section below) intraperitoneally (i.p.) every three day with anti-PD-1 monoclonal antibody (mAb) (250 μg/mouse; clone RMP1-14, BioXcell) or isotype control (clone 2A3, BioXcell). […] In the control group mice received daily oral gavage with water (100 μL) Tumor area was routinely monitored every three days by means of a caliper. […]

CD8^+ T cells = assay: Flow cytometry immune profiling of TILs, MCA-205 tumor model; type: in vivo, C57BL/6 mice; details: SPF mice, castalagin experiment
Method: FIGS. 7A-C are graphs showing the results of immune cell profiling by flow cytometry in the murine MCA-205 (FIGS. 7A-B) or E0771 (FIG. 7C) tumor model treated with anti-PD-1 and/or CC. The tumors and the spleens were harvested 9 days or 19 days after the first injection of anti-PD-1 mAb into mice bearing MCA-205 or E0771 tumors, respectively. Excised tumors were cut into small pieces and digested in RPMI medium containing Liberase 25 μg/mL (Roche) and DNase1 at 150 Ul/mL (Roche) for 30 minutes at 37° C. and then crushed and filtered twice using 100 and 70 μm cell strainers (Becton & Dickinson). Spleens were crushed in RPMI medium and subsequently filtered through a 100 μm cell strainer. Two million tumor cells or splenocytes were pre-incubated with purified anti-mouse CD16/CD32 (clone 93; eBioscience) for 30 minutes at 4° C., before membrane staining (CD45, CD3, CD4, CD8, PD1, PDL1, ICOS, CXCR3, CCR9, CD45RB, CD62L, CD44). For intracellular staining, the Foxp3 staining kit (eBioscience) was used. Dead cells were excluded using the Live/Dead Fixable aqua blue dead cell stain kit (Life Technologies). […] FIG. 7C is a graph showing the activation of intratumoral CD8^+ T cells (as assessed by MFI of ICOS^+CD8^+ T cells by flow cytometry) in TILs in the E0771 tumor model post-treatment with CC +/−αPD-1. […]

Question: How did the tumor size (MCA-205 sarcoma) turn out when `O=C1OC[C@H]2OC(=O)c3cc(O)c(O)c(O)c3-c3c(O)c(O)c(O)c4c3C(=O)O[C@H]([C@H]3OC(=O)c5c-4c(O)c(O)c(O)c5[C@@H]3O)[C@@H]2OC(=O)c2cc(O)c(O)c(O)c2-c2c1cc(O)c(O)c2O` [castalagin, Castalagin] was run?
Answer: The tumor size was “abrogated castalagin antitumor effect”.

Question: What about the “TCM CD8^+ T cells (CD45RB^−CD62L^+) in TILs” value (CD8^+ T cells) of the same compound?
Answer: The value was “upregulation of Tom CD8^+ T cells”.
